Laboratory results: US8114581B2, “Methods and compositions for detecting neoplastic cells” (The Regents of the University of California, priority 2005, dated 2012)

How the values were obtained:
Type in all cases: cell-based
Src [1] = target: T1, Src (Homo sapiens, UniProt P12931); assay: EGF-induced FRET response of Src reporter in HeLa cells
T1 construct: endogenous in cells; host or cells: HeLa
Method: The HeLa or MEF cells expressing the desired exogenous proteins were starved with 0.5% FBS for 36-48 h before being subjected to EGF (50 ng ml^−1) or PDGF (10 ng ml^−1) stimulation. During imaging, the cells were maintained in Hanks' balanced salt solution (HBSS) with 20 mMHEPES (pH 7.4) and 2 g 1^−1 D-glucose at 25° C. Images were collected by using MetaFluor 6.0 software (Universal Imaging) with a 440DF20 excitation filter, a 455DRLP dichroic mirror, and two emission filters controlled by a filter changer (480DF30 for CFP and 535DF25 for YFP).
The various plasmids were transfected into HeLa, MEF, SYF−/−, or 293 cells at 80% confluence using the lipofectamine method (Invitrogen). The RetroMax retroviral expression system (Imgenex) was used to introduce genes into HUVECs. Various Src reporters incorporated in PCLNCX vector were co-transfected with PCL-Ampho packaging vector into 293 cells by using lipofectamine. The supernatant of […] 293 cells was collected after 2 days of transfection and filtered through 0.45 um pore filters. HUVECs were infected with 1:1 mixture of the collected supernatant and fresh EGM in the presence of 8 ug/ml polybrene.

Src [2] = target: T1, Src; assay: Fibronectin-coated bead / laser-tweezer force-induced FRET response in HUVECs; settings: HUVECs expressing Src reporter, PP1 10 uM
Method: (§1) To image the mechanical-force-induced Src activation, HUVECs were first starved with 0.5% FBS for 24 h and then kept in CO2-independent medium without serum (Gibco BRL) at 37° C. in a thermostatic chamber. A Zeiss axiovert inverted microscope equipped with a 440DF20 excitation filter and a 455DRLP dichroic mirror was integrated with the laser-tweezers. CFP and YFP emission images were acquired simultaneously with an ORCA ER CCD camera (Hamamatsu) through a Dual-View module (Optical-Insights). The CFP and YFP images were aligned pixel-by-pixel with our customized Matlab program by maximizing the normalized cross correlation coefficient of CFP and YFP fluorescence intensity images:
(§2) By taking the derivative of rho 2/B(κ) in Otsu's method 30 and calculating its first local minimum, a non parametric method was developed to calculate the intensity threshold to differentiate the edges of HUVECs from the background in CFP or YFP fluorescence intensity images. The intensity threshold was used to generate a binary mask image with values outside the cell set at zero to select the pixels located within the cell body in the CFP/YFP emission ratio images. […] For statistical analysis of long-range activation of Src, a pixel located within a cell at a given time is defined as ‘distally activated’ when: (1) its emission ratio value is above a certain percentage (98%, 90%, 80% and 50% were used as the thresholds) of pixel population in the same cell after 15 min of force stimulation, and (2) the distance between the pixel and the centre of the force-imposed bead is larger than half of the virtual radius of the cell, as shown in the following formula: […]
(§3) This critical force is a measure of the maximum trapping force, at a given laser power, exerted on the bead. […] Since the maximum trapping force occurs when the laser focus is away from the center and close to the edge of the bead, the experimental trapping force with the laser focused at 3.7 um off the bead center in our experiments was calculated from the Ashkin model of trapping force to be 300 pN. […]

Src [3] = assay: as above; settings: HUVECs, membrane-targeted reporter, 300 pN; 1 hr incubation (cytochalasin D 0.2 uM, Nocodazole 1 uM); distal, but not local, responses
Method: as §1, §2, §3

T1 sequence (P12931 whole entry, species assumed): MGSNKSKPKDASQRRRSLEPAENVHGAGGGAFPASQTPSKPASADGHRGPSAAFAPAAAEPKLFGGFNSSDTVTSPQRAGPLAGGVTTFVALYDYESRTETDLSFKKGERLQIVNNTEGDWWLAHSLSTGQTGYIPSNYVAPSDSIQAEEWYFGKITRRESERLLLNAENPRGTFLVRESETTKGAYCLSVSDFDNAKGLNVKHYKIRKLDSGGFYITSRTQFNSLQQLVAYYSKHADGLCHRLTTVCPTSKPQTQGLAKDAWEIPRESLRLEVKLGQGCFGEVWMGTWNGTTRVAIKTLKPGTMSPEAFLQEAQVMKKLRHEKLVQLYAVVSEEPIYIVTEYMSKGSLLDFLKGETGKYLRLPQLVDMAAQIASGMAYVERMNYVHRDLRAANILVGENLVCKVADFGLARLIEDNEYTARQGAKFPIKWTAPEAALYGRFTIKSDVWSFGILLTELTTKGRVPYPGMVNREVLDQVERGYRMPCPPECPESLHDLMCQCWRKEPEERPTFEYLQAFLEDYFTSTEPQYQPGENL

SMILES	effect on EGF-induced FRET response of membrane-targeted reporter, inhibitor added after EGF (Src [1]; EGF 50 ng/ml, PP1 10 uM)	effect on EGF-induced FRET response of membrane-targeted reporter, pretreatment with inhibitor (Src [1]; PP1 10 uM for 1 hr before EGF 50 ng/ml)	effect on EGF-induced FRET response of Src reporter, inhibitor added after EGF (Src [1]; cytosolic Src reporter)	effect on EGF-induced FRET response of Src reporter, pretreatment with inhibitor (Src [1]; cytosolic Src reporter)	effect on local FRET response caused by fibronectin-coated beads (Src [2])	effect on force-induced distal FRET responses (Src [3])
Cc1ccc(-c2nn(C(C)(C)C)c3ncnc(N)c23)cc1 [PP1]	reversed	prevented	reversed	markedly reduced	reversible	
C=C1[C@@H](C)[C@H]2[C@H](Cc3ccccc3)NC(=O)[C@]23[C@H](OC(C)=O)/C=C/[C@@](C)(O)C(=O)[C@@H](C)C/C=C/[C@H]3[C@@H]1O [cytochalasin D]						blocked
COC(=O)Nc1nc2ccc(C(=O)c3cccs3)cc2[nH]1 [nocodazole]						blocked
